Measurements as given in ChEMBL document CHEMBL1255330, “Efficacy of SPK-843, a novel polyene antifungal, in a murine model of systemic cryptococcosis” (Antimicrob Agents Chemother, 2008).
Values after ≈ are worked out from the molar mass of the structure shown. Active and inactive are the calls of the source. No cut-off for these calls is given here.

Legend:
Cryptococcus neoformans [1] = assay: Antifungal activity against Cryptococcus neoformans YC-11 infected in BALB/c mouse assessed as reduction in fungal burden in brain at 20 mg/kg, iv qd for 5 days measured after 7 days of infection; type: functional
Cryptococcus neoformans [2] = assay: Antifungal activity against Cryptococcus neoformans YC-11 infected in BALB/c mouse assessed as reduction in fungal burden in brain at 80 mg/kg, iv qd for 5 days measured after 7 days of infection; type: functional
Cryptococcus neoformans [3] = assay: Antifungal activity against Cryptococcus neoformans YC-11 infected in BALB/c mouse assessed as reduction in fungal burden in brain at 40 mg/kg, iv qd for 5 days measured after 7 days of infection; type: functional
Cryptococcus neoformans [4] = assay: Antifungal activity against Cryptococcus neoformans YC-11 by microdilution method; type: functional
Cryptococcus neoformans [5] = assay: Antifungal activity against Cryptococcus neoformans YC-11 infected in BALB/c mouse brain assessed as reduction in multiple fungal induced abscesses at 80 mg/kg, iv qd for 5 days measured after 7 days of infection by histopathological analysis; type: functional, organism-based; parameters: dose 80 mg/kg
Cryptococcus neoformans [6] = assay: Antifungal activity against Cryptococcus neoformans YC-11 infected in BALB/c mouse assessed as increase in mouse survival at 80 mg/kg, iv qd for 5 days; type: functional, organism-based; parameters: dose 80 mg/kg
Cryptococcus neoformans [7] = assay: Antifungal activity against Cryptococcus neoformans YC-11 infected in BALB/c mouse assessed as increase in mouse survival at 4 mg/kg, iv qd for 5 days; type: functional, organism-based; parameters: dose 4 mg/kg
Cryptococcus neoformans [8] = assay: Antifungal activity against Cryptococcus neoformans YC-11 infected in BALB/c mouse brain assessed as reduction in multiple fungal induced abscesses at 2 mg/kg, iv qd for 5 days measured after 7 days of infection by histopathological analysis; type: functional, organism-based; parameters: dose 2 mg/kg
Cryptococcus neoformans [9] = assay: Antifungal activity against Cryptococcus neoformans YC-11 infected in BALB/c mouse assessed as reduction in fungal burden in brain at 1 mg/kg, iv qd for 5 days measured after 7 days of infection; type: functional
Cryptococcus neoformans [10] = assay: Antifungal activity against Cryptococcus neoformans YC-11 infected in BALB/c mouse assessed as increase in mouse survival at 1 mg/kg, iv qd for 5 days; type: functional, organism-based; parameters: dose 1 mg/kg
Mus musculus = assay: Toxicity in BALB/c mouse at 4 mg/kg, iv; type: organism-based; parameters: dose 4 mg/kg, route intravenous; conditions: in vivo
Cryptococcus neoformans [11] = assay: Antifungal activity against Cryptococcus neoformans YC-11 infected in BALB/c mouse assessed as reduction in fungal burden in brain at 4 mg/kg, iv treated qd for 5 days measured after 7 days of infection; type: functional
Cryptococcus neoformans [12] = assay: Antifungal activity against Cryptococcus neoformans YC-11 infected in BALB/c mouse assessed as reduction in fungal burden in brain at 2 mg/kg, iv qd for 5 days measured after 7 days of infection; type: functional
Cryptococcus neoformans [13] = assay: Antifungal activity against Cryptococcus neoformans YC-11 infected in BALB/c mouse brain assessed as reduction in fungal induced abscesses at 4 mg/kg, iv qd for 5 days measured after 7 days of infection by histopathological analysis; type: functional, organism-based; parameters: dose 4 mg/kg
Cryptococcus neoformans [14] = assay: Antifungal activity against Cryptococcus neoformans YC-11 infected in BALB/c mouse brain assessed as reduction in multiple fungal induced abscesses at 1 mg/kg, iv qd for 5 days measured after 7 days of infection by histopathological analysis; type: functional, organism-based; parameters: dose 1 mg/kg
Cryptococcus neoformans [15] = assay: Antifungal activity against Cryptococcus neoformans YC-11 infected in BALB/c mouse liver assessed as reduction in fungal induced liver damage at 0.7 mg/kg, iv qd for 5 days measured after 7 days of infection by histopathological analysis; type: functional, organism-based; parameters: dose 0.7 mg/kg
Cryptococcus neoformans [16] = assay: Antifungal activity against Cryptococcus neoformans YC-11 infected in BALB/c mouse liver assessed as reduction in fungal induced liver damage at 4 mg/kg, iv qd for 5 days measured after 7 days of infection by histopathological analysis; type: functional, organism-based; parameters: dose 4 mg/kg
Cryptococcus neoformans [17] = assay: Antifungal activity against Cryptococcus neoformans YC-11 infected in BALB/c mouse assessed as increase in mouse survival at 0.7 mg/kg, iv qd for 5 days; type: functional, organism-based; parameters: dose 0.7 mg/kg
Cryptococcus neoformans [18] = assay: Antifungal activity against Cryptococcus neoformans YC-11 infected in BALB/c mouse assessed as increase in mouse survival at 0.5 mg/kg, iv qd for 5 days; type: functional, organism-based; parameters: dose 0.5 mg/kg
Cryptococcus neoformans [19] = assay: Antifungal activity against Cryptococcus neoformans YC-11 infected in BALB/c mouse kidney assessed as reduction in fungal induced tubular cell necrosis at 0.7 mg/kg, iv treated qd for 5 days measured after 7 days of infection by histopathological analysis; type: functional, organism-based; parameters: dose 0.7 mg/kg

| SMILES | log10cfu (Cryptococcus neoformans [1]) | log10cfu (Cryptococcus neoformans [2]) | log10cfu (Cryptococcus neoformans [3]) | MIC (Cryptococcus neoformans [4]) [µg/mL] | Activity (Cryptococcus neoformans [5]) | Activity (Cryptococcus neoformans [6]) | Activity (Cryptococcus neoformans [7]) | Activity (Cryptococcus neoformans [8]) | log10cfu (Cryptococcus neoformans [9]) | Activity (Cryptococcus neoformans [10]) | Activity (Mus musculus) | log10cfu (Cryptococcus neoformans [11]) | log10cfu (Cryptococcus neoformans [12]) | Activity (Cryptococcus neoformans [13]) | Activity (Cryptococcus neoformans [14]) | Activity (Cryptococcus neoformans [15]) | Activity (Cryptococcus neoformans [16]) | Activity (Cryptococcus neoformans [17]) | Activity (Cryptococcus neoformans [18]) | Activity (Cryptococcus neoformans [19]) |
| --- | --- | --- | --- | --- | --- | --- | --- | --- | --- | --- | --- | --- | --- | --- | --- | --- | --- | --- | --- | --- |
| OC(Cn1cncn1)(Cn1cncn1)c1ccc(F)cc1F [FLUCONAZOLE] | 7.03 | 6.34 | 6.71 | 2 (≈ 6.53 µM) | inactive | Active |  |  |  |  |  |  |  |  |  |  |  |  |  |  |
| CNc1ccc(C(=O)CC(O)CC[C@H](C)[C@H]2OC(=O)C[C@H](O)CC(=O)C[C@H](O)C[C@H](O)C[C@H](O)C[C@H](O)C[C@]3(O)C[C@H](O)[C@@H](C(=O)NCCN(C)C)C(C[C@@H](OC4O[C@H](C)[C@@H](O)[C@H](NC(=O)CN(C)C)[C@@H]4O)/C=C/C=C/C=C/C=C\C=C/C=C/C=C/[C@@H]2C)O3)cc1.O=C1O[C@H]([C@H](O)CO)C(O)=C1O (some centres not stated) |  |  |  | 0.125 |  |  | Active | inactive | 7.42 | Active | Non-toxic | 3.45 | 6.44 | Active | inactive |  |  |  |  |  |
| C[C@@H]1[C@H](O)[C@@H](C)/C=C/C=C/C=C/C=C/C=C/C=C/C=C/[C@H](O[C@@H]2O[C@H](C)[C@@H](O)[C@H](N)[C@@H]2O)C[C@@H]2O[C@](O)(C[C@@H](O)C[C@@H](O)[C@H](O)CC[C@@H](O)C[C@@H](O)CC(=O)O[C@H]1C)C[C@H](O)[C@H]2C(=O)O [AMPHOTERICIN B] |  |  |  | 0.25 (≈ 0.271 µM) |  |  |  |  |  |  |  |  |  |  |  | Active | Active | Active | Active | inactive |
